Measurements: US8247002B2, “Antioxidant material, anti-deterioration agent and food or beverage” (Pokka Corporation, priority 2004, dated 2012)
Values belong to the compound of their own block, whether it stands above or below them.

Experiments:
Type in all cases: biochemical
[1] = Measurement of DPPH radical-scavenging activity; conditions: 500 ppm solution (with vitamin C: each 500 ppm), 100 μl aliquot, 20 minutes room temperature in the dark
Experimental: Each sample shown in Table 1 described below was examined for DPPH (1,1-diphenyl-2-picrylhydrazyl) radical-scavenging activity. Namely, the lemon glycoside of Comparative Example 1, the eriocitrin of Comparative Example 2, the enzyme-treated aglycon of Test Example 1, or eriodictyol, neoeriocitrin, vitamin C, or α-tocopherol purchased from Funakoshi was dissolved at its concentration of 500 ppm in a solvent to produce an aqueous solution. Then, 100 μl aliquot of the aqueous solution was supplemented with 1 ml of 0.1 M Tris buffer (pH 7.4). The solvent used for α-tocopherol was methanol. Alternatively, each sample described above and vitamin C were dissolved at each concentration of 500 ppm in a solvent to produce an aqueous solution whose 100 μl aliquot was then supplemented with 1 ml of 0.1 M Tris buffer. Subsequently, 2 ml of a DPPH solution (solution obtained by dissolving DPPH at its concentration of 500 μM in ethanol) was added to the solutions and well mixed. The resulting solutions were left at room temperature for 20 minutes in the dark to undergo reaction. The amount of DPPH in each reaction solution (10 μl) was quantified by measurement using HPLC Analysis System 2 described below under HPLC Condition 3. In a method of evaluating radical-scavenging activity, the amount of DPPH remaining in the sample (glycoside and aglycon)-free test section (control) was regarded in advance as 100%. Additionally, the amount of DPPH remaining in the reaction solution supplemented with each sample was measured and indicated by percentage (%) with respect to the amount of DPPH in the control section. Because the radical-scavenging activity of the section supplemented with eriodictyol and vitamin C was almost 100%, the test was conducted again with the amount of the sample reduced to half. Namely, eriodictyol and vitamin C were dissolved at each concentration of 500 ppm in a solvent to produce an aqueous solution whose 50 μl aliquot was then supplemented with 1 ml of 0.1 M Tris buffer. The radical-scavenging activity of the resulting solution was measured as described above. The obtained numeric value was doubled to thereby correct the data. The result is shown in Table 1. <HPLC Analysis System 2> Pump: Shimadzu LC-10AD, System Controller: Shimadzu SCL-10A, Autoinjector: Shimadzu SIL-10A, Detector: Shimadzu SPD-10A (UV spectrophotometric detector), Column Oven: Shimadzu CTO-10A <HPLC Condition 3> Column: TSK-GEL octyl-80Ts (4.6 i.d.×150 mm), Eluent: methanol/water=30/70 (v/v), Flow Rate: 1 ml/min, Detection Wavelength: 517 nm

[2] = Inhibitory effects on generation of peroxide lipid, methyl linoleate as substrate; conditions: 100 μl of 500 ppm solution, 89 mg methyl linoleate, 40° C. 18 hours in the dark
Experimental: Each sample shown in Table 1 described above was examined for inhibitory effects on the generation of peroxide lipid, with methyl linoleate as a substrate. Namely, 100 μl of each aqueous solution used in the paragraph (Measurement of radical-scavenging activity) and 89 mg (100 μl) of methyl linoleate were added to a small test tube of 14 mm in inner diameter and well mixed. At the same time, 100 μl of only the solvent for the aqueous solution was added instead of the aqueous solution to prepare a control. The solvents in these mixture solutions were completely removed in a vacuum desiccator using a vacuum pump. The resulting solutions were left in the dark at 40° C. for 18 hours. Next, 5 ml of 0.08% BHT (2,6-di-t-butyl-4-methylphenol)/hexane solution was added thereto. The amount of peroxide generated from methyl linoleate was measured using HPLC Analysis System 2 shown below under HPLC Condition 4. In a method of measuring and evaluating antioxidative activity, the total of HPLC peak area of peroxide lipids (13-hydroperoxide and 9-hydroperoxide) generated from methyl linoleate in the control test section was determined first. This determined value was regarded as 100%. The total HPLC peak area of the peroxide lipids in the test section supplemented with each sample was determined. This determined value was indicated by percentage (%) with respect to the total of HPLC peak area of the control to thereby determine a rate of inhibition against the oxidation of methyl linoleate.
Pump: Shimadzu LC-10AD, System Controller: Shimadzu SCL-10A, Autoinjector: Shimadzu SIL-10A, Detector: Shimadzu SPD-10A (UV spectrophotometric detector), Column Oven: Shimadzu CTO-10A
Column: Develosil ST 60-5 (4.6 i.d.×250 mm), Eluent: n-hexane/1,4-dioxane/isopropylalcohol=98/1/1 (v/v/v), Flow Rate: 1 ml/min, Detection Wavelength: 235 nm

[3] = Inhibitory effect on oxidation of biomembrane using liposome (SUV, AAPH, TBA); conditions: 500 ppm sample in phosphate buffer pH 7.4, AAPH, 535 nm
Experimental: A single compartment liposome (SUV: Small Unilamellar Vesicle) was used as a biomembrane model to evaluate antioxidative power. For preparing SUV, at first, 100 mg of yolk lecithin was supplemented with 1 ml of chloroform and completely dissolved, followed by the complete removal of the chloroform in a short-neck flask. The obtained lipid film was swollen by the addition of 10 ml of 10 mM phosphate buffer (pH 7.4) containing 500 ppm of the lemon glycoside of Comparative Example 1, the eriocitrin of Comparative Example 2, the enzyme-treated aglycon of Test Example 1, or eriodictyol (manufactured by Funakoshi). The resulting mixture was well shaken and completely dispersed with an ultrasonic washing machine. The lipid film swollen by the addition of 10 ml of only the phosphate buffer was tested as a control in the same way. Next, the obtained multilayer liposome solution was bubbled with nitrogen gas for 5 minutes and then sonicated at 180 W for 20 minutes in a strong ultrasonic generator to prepare a small unilamellar vesicle (SUV).
The peroxidation of the SUV thus prepared was forcedly promoted by the addition of AAPH ([…]), a radical initiator, to the SUV. As a result, a peroxide as a primary product is generated in the liposome. Subsequently, as a secondary product such as malondialdehyde is generated during the course of autoxidation. A thiobarbituric acid (TBA) reagent is added thereto to generate a red substance (TBA-positive substance), a reaction product of aldehydes. The degree of coloration thereof was measured with a spectrophotometer at λ=535 nm and used to determine the rate of oxidation of the liposome membrane (%).

[4] = Measurement of rate of elimination of active oxygen (xanthine oxidase / xanthine / nitro blue tetrazolium); conditions: as printed for α-tocopherol in the active oxygen test
Experimental: Xanthine oxidase (0.5 ml (5.6 units)) was mixed with 0.3 ml of 1 mM xanthine (manufactured by Wako Pure Chemical Industries), 0.3 ml of 0.25 mM nitro blue tetrazolium (manufactured by Wako Pure Chemical Industries), and 2.3 ml of 0.05 M sodium carbonate buffer (pH 10.2). The xanthine oxidase used was a reagent (manufactured by Wako Pure Chemical Industries) diluted at 100 fold with 0.05 M sodium carbonate buffer. This mixture was supplemented with 0.1 ml (concentration: 1000 ppm) of the lemon glycoside of Comparative Example 1 or the enzyme-treated aglycon of Test Example 1 and incubated. Because blue formazan was produced with a lapse of incubation time, absorbance at λ=560 nm was measured using a spectrophotometer (HITACHI spectrophotometer U2000) after 3 minutes of incubation. A test section without addition of the sample (glycoside and aglycon) was used as control. As a blank test, a sodium carbonate buffer was added instead of the xanthine oxidase to perform the same procedures. A value obtained by subtracting the absorbance of the blank test from the absorbance of the solution supplemented with each sample was divided by the absorbance of the control to thereby determine a rate of elimination of active oxygen (%).

SMILES: O=C1C[C@@H](c2ccc(O)c(O)c2)Oc2cc(O)cc(O)c21 [Eriodictyol, eriodictyol]
DPPH radical-scavenging activity [1]: 75.70% | Rate of inhibition against oxidation of methyl linoleate [2]: 20.99% | rate of oxidation of the liposome membrane [3]: 6.80%

SMILES: C[C@@H]1O[C@@H](O[C@H]2[C@H](Oc3cc(O)c4c(c3)O[C@H](c3ccc(O)c(O)c3)CC4=O)O[C@H](CO)[C@@H](O)[C@@H]2O)[C@H](O)[C@H](O)[C@H]1O [Neoeriocitrin, neoeriocitrin]
DPPH radical-scavenging activity [1]: 30.70% | Rate of inhibition against oxidation of methyl linoleate [2]: 9.24%

SMILES: O=C1O[C@H]([C@@H](O)CO)C(O)=C1O [Vitamin C, ascorbic acid]
DPPH radical-scavenging activity [1]: 14.00% | Rate of inhibition against oxidation of methyl linoleate [2]: 8.32%

rate of oxidation [4]: 238.2%
SMILES: Cc1c(C)c2c(c(C)c1O)CC[C@@](C)(CCC[C@H](C)CCC[C@H](C)CCCC(C)C)O2 [α-tocopherol]
DPPH radical-scavenging activity [1]: 44.82% | Rate of inhibition against oxidation of methyl linoleate [2]: 16.97% | rate of oxidation of the liposome membrane [3]: 76.87%

SMILES: C[C@@H]1O[C@@H](OC[C@H]2O[C@@H](Oc3cc(O)c4c(c3)O[C@H](c3ccc(O)c(O)c3)CC4=O)[C@H](O)[C@@H](O)[C@@H]2O)[C@H](O)[C@H](O)[C@H]1O [Eriocitrin, eriocitrin]
DPPH radical-scavenging activity [1]: 28.64% | Rate of inhibition against oxidation of methyl linoleate [2]: 8.00% | rate of oxidation of the liposome membrane [3]: 9.52%
